One data set deals with HeLa. The data set can be described thus: Cytotoxicity against human HeLa cells by sulforhodamine B assay. The class given is functional. The note with it: read-out: TC50 (the source's name). For orientation: In SRB staining, fixed cells bind dye roughly in proportion to their protein.
For the next data set, the system named is Plasmodium falciparum. The data set can be described thus: Antimalarial activity against chloroquine-resistant Plasmodium falciparum FcB1/Columbia infected in human erythrocytes assessed as inhibition of [G-3H]hypoxanthine incorporation after 24 hrs by scintillation counting. Format: functional, organism-based.
Data set [1] in a line: Selective index, ratio of TC50 for human HeLa cells to IC50 for Plasmodium falciparum FcB1/Columbia. Format: functional.
The subject of a further data set is MDA-MB-231. The data set can be described thus: Growth inhibition of human MDA-MB-231 cells by sulforhodamine B assay. Format: functional. The settings on record: for CC50: read-out: LC50 (the source's name).
The test system of the next data set is A549. The data set can be described thus: Growth inhibition of human A549 cells by sulforhodamine B assay. The class given is functional. The note with it: for CC50: read-out: LC50 (the source's name).
The test system of another data set is HT-29. Put plainly: Growth inhibition of human HT-29 cells by sulforhodamine B assay. The class given is functional.
A further data set has as its system Vero. Put plainly: Cytotoxicity against african green monkey Vero cells. The class given is cell-based. The note with it: chlorocebus sabaeus.

What is called IC50 is the midpoint of a concentration-inhibition curve. On to `CCCCCCCCC[C@@H]1C[C@@H]2CC[C@H]3[C@@H](C(=O)OCCCCCCCCC[C@H]4NC(=N)N5CCCC5=C4C(=O)OCCCCNC(=N)N)[C@@H](C)N=C(N1)N23` [BATZELLADINE A], for which the CC50 with HeLa stood at 2.9 µM. Besides, in the data set on Plasmodium falciparum, the IC50 turned out to be 0.3 µM. Further, the “Selectivity Index” value in data set [1] is on record as 9.7.

For `CCCCCCCCC[C@@H]1C[C@@H]2CC[C@H]3[C@@H](C(=O)OC(C)CCCCCCC[C@@H]4C[C@@H]5CC[C@@H]6C[C@H](C)NC(=N4)N65)[C@@H](C)N=C(N1)N23` (some centres undefined) [BATZELLADINE L], the CC50 in the data set on HeLa was below 0.1 µM. Besides, in the data set on Plasmodium falciparum, the half-maximal inhibitory concentration (IC50) was determined as 0.3 µM. The “Selectivity Index” value in data set [1] is below 1.

By GI50 is commonly meant the concentration that inhibits growth by half. A word on the TGI: it is the concentration giving total growth inhibition. Regarding `CCCCCCC[C@@H]1C[C@@H]2CCc3c(C(=O)O)c(C)nc([n+]32)N1` [CLATHRIADIC ACID], in the data set on MDA-MB-231, growth was halved (GI50) at 13.5 µM, the TGI was above 30 µM and the CC50 is above 30 µM. For the same molecule, in the data set on A549, the GI50 was above 30 µM, the TGI was above 30 µM and the CC50 was above 30 µM. In the data set with HT-29, the 50% growth inhibitory concentration (GI50) is above 30 µM, the LC50 (concentration killing 50% of cells) was above 30 µM and the TGI was above 30 µM. In addition, in the data set on Plasmodium falciparum, the concentration for half-maximal inhibition (IC50) was 2.3 µM.

For `CCCCCCCCC[C@@H]1C[C@@H]2CCc3c(C(=O)OCCCCNC(=N)N)c(CCCCC)nc([n+]32)N1` [DIHOMODEHYDROBATZELLADINE C], in the data set on MDA-MB-231, the GI50 was determined as 6.1 µM, the TGI stood at 9.8 µM and the CC50 is 15.6 µM. Also, in the data set on A549, the GI50 worked out at 4.7 µM, total growth inhibition (TGI) required 8.2 µM and the CC50 was determined as 13.1 µM. Moreover, in the data set with HT-29, the GI50 worked out at 3.1 µM, the LC50 (concentration killing 50% of cells) was determined as 8.2 µM and net growth stopped (TGI) at 5.1 µM. The IC50 with Plasmodium falciparum was found to be 4.5 µM.

Take `CCCCCCC[C@@H]1C[C@@H]2CC[C@H]3[C@@H](C(=O)OCCCCCCCCC[C@H]4NC(=N)N5CCCC5=C4C(=O)OCCCCNC(=N)N)[C@@H](C)N=C(N1)N23` [DINORBATZELLADINE A]: in the data set with MDA-MB-231, growth was halved (GI50) at 3 µM, the TGI came out at 3.8 µM and the CC50 came out at 4.6 µM. In the data set with A549, the GI50 was found to be 4.9 µM, the TGI is 5.1 µM and the CC50 stood at 5.4 µM. For the same molecule, in the data set on HT-29, the GI50 came out at 1.9 µM, the LC50 (concentration killing 50% of cells) was determined as 7.6 µM and the TGI was 4.2 µM. Besides, the IC50 in the data set on Plasmodium falciparum came out at 0.9 µM.

As for `CCCCCCC[C@@H]1C[C@@H]2CCc3c(C(=O)OCCCCCCC[C@H]4NC(=N)N5CCCC5=C4C(=O)OCCCCNC(=N)N)c(C)nc([n+]32)N1` [DINORDEHYDROBATZELLADINE B], in the data set with A549, it took 7.9 µM to inhibit growth by half (GI50), the TGI was above 14 µM and the CC50 is above 14 µM. In the data set with HT-29, this molecule came in with a GI50 of 6.2 µM, an LC50 (concentration killing 50% of cells) above 14 µM and a total growth inhibition concentration (TGI) above 14 µM. The IC50 with Plasmodium falciparum is 0.8 µM.

In the case of `CCCCCCCC[C@@H]1C[C@@H]2CC[C@H]3[C@@H](C(=O)OCCCCCCCCC[C@H]4NC(=N)N5CCCC5=C4C(=O)OCCCCNC(=N)N)[C@@H](C)N=C(N1)N23` [NORBATZELLADINE A], in the data set on MDA-MB-231, the GI50 was 3.8 µM, the TGI stood at 6.4 µM and the CC50 turned out to be 11.4 µM. In addition, in the data set on A549, halving of growth (GI50) required 2.1 µM, net growth stopped (TGI) at 4.6 µM and the CC50 was 8.6 µM. In the data set on HT-29, it took 1.6 µM to inhibit growth by half (GI50), the LC50 (concentration killing 50% of cells) is 5.7 µM and the TGI was found to be 3.2 µM. Besides, the CC50 with HeLa is 4.7 µM. Also, the IC50 in the data set with Plasmodium falciparum was 0.2 µM. Further, the “Selectivity Index” value in data set [1] turned out to be 23.5.

Regarding `CCCCCCCC[C@@H]1C[C@@H]2CC[C@H]3[C@@H](C(=O)OC(C)CCCCCCC[C@@H]4C[C@@H]5CC[C@@H]6C[C@H](C)NC(=N4)N65)[C@@H](C)N=C(N1)N23` (some centres undefined) [NORBATZELLADINE L], in the data set with MDA-MB-231, the GI50 amounted to 0.7 µM, total growth inhibition (TGI) required 1.9 µM and the CC50 came to 4.8 µM. Also, in the data set with A549, the GI50 was 1.1 µM, total growth inhibition (TGI) required 2.1 µM and the CC50 stood at 4.2 µM. In the data set with HT-29, the concentration for 50% growth inhibition (GI50) worked out at 1.2 µM, the LC50 (concentration killing 50% of cells) came to 4 µM and the total growth inhibition concentration (TGI) came to 2.2 µM. The IC50 in the data set with Plasmodium falciparum stood at 0.4 µM.

Consider `CC[C@H]1CCCC[C@@]2(C[C@@H]3CC[C@@H]4[C@H](C(=O)OCCCCCCCCCCCCCCCC(=O)N(CCCN)CCCCN)[C@]5(CCC[C@@H](C)O5)NC(=[N+]34)N2)O1.[Cl-]` [PTILOMYCALIN A], for which, in the data set on HeLa, the CC50 was determined as 0.1 µM. Also, the half-inhibitory concentration (IC50) with Plasmodium falciparum was 0.1 µM. For the same molecule, the “Selectivity Index” value in data set [1] is 1.4. The Activity result in the data set on Vero is “Non-toxic”.

These data come from ChEMBL document CHEMBL1154268, “Bioactive guanidine alkaloids from two Caribbean marine sponges” (J Nat Prod, 2009).
